Assays:
DIGSA [1] = experiment: Herbicidal pre-emergence action, section C (Table C5); assay type: in vivo, Digitaria sanguinalis; settings: application rate 320 g/ha; visual grading after ca. 3 weeks
ABUTH [2] = experiment: Herbicidal post-emergence action (Table B1); assay type: in vivo, Abutilon theophrasti; settings: application rate 1280 g/ha; treated at one-leaf stage; rated visually after about 3 weeks vs untreated controls (100% = plants have died, 0% = like control plants)
Procedure, shortened: (§1)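 Treated at one-leaf stage (2–3 weeks after sowing in sandy loam, greenhouse-grown). Visual efficacy rating after about 3 weeks; 0% = like controls, 100% = complete kill.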

KCHSC = experiment: Herbicidal pre-emergence action (Table A10); assay type: in vivo, Kochia scoparia; settings: application rate 320 g/ha; visual grading after ca. 3 weeks
Procedure, shortened: (§2)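 Paired sowings (monocot weed with dicot weed) in potted sandy loam, seeds soil-covered.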

SETVI [3] = experiment: Herbicidal pre-emergence action, section C (Table C10); assay type: in vivo, Setaria viridis; settings: application rate 320 g/ha; visual grading after ca. 3 weeks
AMARE = experiment: Herbicidal pre-emergence action (Table A8); assay type: in vivo, Amaranthus retroflexus; settings: application rate 1280 g/ha; visual grading after ca. 3 weeks vs untreated controls (100% = plants have died off, 0% = as control plants)
Procedure, shortened: as §2

ECHCG [4] = experiment: Herbicidal post-emergence action (Table B3); assay type: in vivo, Echinochloa crus-galli; settings: application rate 1280 g/ha; rated visually after about 3 weeks
Procedure, shortened: as §1

VERPE [5] = experiment: Herbicidal post-emergence action, section E (Table E9); assay type: in vivo, Veronica persica; settings: application rate 320 g/ha; assessed visually after ca. 3 weeks
Description: (§3) 2 to 3 weeks after sowing, the test plants were sprayed in the single-leaf stage.

LOLRI [6] = experiment: Herbicidal pre-emergence action (Table A3); assay type: in vivo, Lolium rigidum; settings: application rate 320 g/ha; visual grading after ca. 3 weeks
Procedure, shortened: as §2

VERPE [7] = experiment: Herbicidal pre-emergence action (Table A11); assay type: in vivo, Veronica persica; settings: application rate 1280 g/ha; visual grading after ca. 3 weeks
Procedure, shortened: as §2

VERPE [8] = experiment: Herbicidal post-emergence action (Table B10); assay type: in vivo, Veronica persica; settings: application rate 1280 g/ha
Procedure, shortened: as §1

SETVI [9] = experiment: Herbicidal pre-emergence action (Table A5); assay type: in vivo, Setaria viridis; settings: application rate 320 g/ha; visual grading after ca. 3 weeks
Procedure, shortened: as §2

LOLRI [10] = experiment: Herbicidal pre-emergence action, section C (Table C7); assay type: in vivo, Lolium rigidum; settings: application rate 320 g/ha; visual grading after ca. 3 weeks
DIGSA [11] = experiment: Herbicidal post-emergence action (Table B12); assay type: in vivo, Digitaria sanguinalis; settings: application rate 1280 g/ha
Method: Seeds of mono- and dicotyledonous weed plants were placed in plastic pots in sandy loam soil (doubly sown with in each case one species of mono- or dicotyledonous weed plants per pot), covered with soil and cultivated in a greenhouse under controlled growth conditions. 2 to 3 weeks after sowing, the test plants were treated at the one-leaf stage. […] After the test plants had been kept in the greenhouse under optimum growth conditions for about 3 weeks, the activity of the preparations was rated visually in comparison to untreated controls. For example, 100% activity = the plants have died, 0% activity = like control plants.

ECHCG [12] = experiment: Herbicidal pre-emergence action, section C (Table C6); assay type: in vivo, Echinochloa crus-galli; settings: application rate 80 g/ha; visual grading after ca. 3 weeks
ZEAMX [13] = experiment: Pre-emergence effects on crop plants (Table D1); assay type: in vivo, Zea mays; settings: crop plant; application rate 320 g/ha; visual grading after ca. 3 weeks
DIGSA [14] = experiment: Herbicidal pre-emergence action (Table A12); assay type: in vivo, Digitaria sanguinalis; settings: application rate 1280 g/ha; visual grading after ca. 3 weeks
Procedure, shortened: as §2

TRZAS [15] = experiment: Post-emergence effects on crop plants (Table F2); assay type: in vivo, Triticum aestivum; settings: application rate 320 g/ha, crop plant TRZAS
Description: as §3

ORYZA = experiment: Post-emergence effects on crop plants (Table F3); assay type: in vivo, Oryza sativa; settings: application rate 320 g/ha, crop plant ORYZA
Description: as §3

ECHCG [16] = experiment: Herbicidal post-emergence action, section E (Table E5); assay type: in vivo, Echinochloa crus-galli; settings: application rate 320 g/ha; assessed visually after ca. 3 weeks
Description: as §3

ZEAMX [17] = experiment: Post-emergence effects on crop plants (Table F1); assay type: in vivo, Zea mays; settings: application rate 320 g/ha, crop plant ZEAMX
Description: as §3

MATIN [18] = experiment: Herbicidal post-emergence action (Table B6); assay type: in vivo, Matricaria inodora; settings: application rate 1280 g/ha; rated visually after about 3 weeks
Procedure, shortened: as §1

STEME = experiment: Herbicidal pre-emergence action (Table A6); assay type: in vivo, Stellaria media; settings: application rate 320 g/ha; visual grading after ca. 3 weeks
Procedure, shortened: as §2

ABUTH [19] = experiment: Herbicidal post-emergence action, section E (Table E1); assay type: in vivo, Abutilon theophrasti; settings: application rate 320 g/ha; assessed visually after ca. 3 weeks
Description: as §3

MATIN [20] = experiment: Herbicidal pre-emergence action, section C (Table C8); assay type: in vivo, Matricaria inodora; settings: application rate 320 g/ha; visual grading after ca. 3 weeks
VERPE [21] = experiment: Herbicidal pre-emergence action, section C (Table C11); assay type: in vivo, Veronica persica; settings: application rate 80 g/ha; visual grading after ca. 3 weeks
ALOMY = experiment: Herbicidal pre-emergence action, section C (Table C2); assay type: in vivo, Alopecurus myosuroides; settings: application rate 320 g/ha; visual grading after ca. 3 weeks
Description: Seeds of mono- and dicotyledonous weed plants and crop plants were sown, in plastic or organic planting pots, in sandy loam and covered with soil. The compounds according to the invention, formulated in the form of wettable powders (WP) or as emulsifiable concentrates (EC), were applied to the surface of the covering soil as aqueous suspension or emulsion, with the addition of 0.5% of an additive, at an application rate of 600 1 of water/ha (converted). Following treatment, the pots were placed in a greenhouse and kept under optimum growth conditions for the test plants.

ECHCG [22] = experiment: Herbicidal pre-emergence action (Table A2); assay type: in vivo, Echinochloa crus-galli; settings: application rate 320 g/ha; visual grading after ca. 3 weeks
Procedure, shortened: as §2

VIOTR = experiment: Herbicidal pre-emergence action, section C (Table C12); assay type: in vivo, Viola tricolor; settings: application rate 80 g/ha; visual grading after ca. 3 weeks
MATIN [23] = experiment: Herbicidal pre-emergence action (Table A4); assay type: in vivo, Matricaria inodora; settings: application rate 1280 g/ha; visual grading after ca. 3 weeks
Procedure, shortened: as §2

POLCO = experiment: Herbicidal pre-emergence action, section C (Table C9); assay type: in vivo, Polygonum convolvulus; settings: application rate 320 g/ha; visual grading after ca. 3 weeks
TRZAS [24] = experiment: Pre-emergence effects on crop plants (Table D2); assay type: in vivo, Triticum aestivum; settings: crop plant; application rate 320 g/ha; visual grading after ca. 3 weeks
POAAN [25] = experiment: Herbicidal pre-emergence action (Table A7); assay type: in vivo, Poa annua; settings: application rate 320 g/ha; visual grading after ca. 3 weeks
Procedure, shortened: as §2

LOLRI [26] = experiment: Herbicidal post-emergence action (Table B5); assay type: in vivo, Lolium rigidum; settings: application rate 1280 g/ha; rated visually after about 3 weeks
Procedure, shortened: as §1

POAAN [27] = experiment: Herbicidal post-emergence action (Table B7); assay type: in vivo, Poa annua; settings: application rate 1280 g/ha
Procedure, shortened: as §1

For O=C1N(Cc2cccc(F)c2F)CCCC12CCN(Cc1cccc(F)c1F)C2=O (racemic) [I-025], the “pre-emergence activity against DIGSA” value (DIGSA [1]) was 100%, the “post-emergence activity against ABUTH” value (ABUTH [2]) was 90% and the “pre-emergence activity against KCHSC” value (KCHSC) was 90%. For the same compound, the “pre-emergence activity against SETVI” value (SETVI [3]) was 90%, the “pre-emergence activity against AMARE” value (AMARE) was 90% and the “post-emergence activity against ECHCG” value (ECHCG [4]) was 90%. The “post-emergence activity against VERPE” value (VERPE [5]) was 80%, the “pre-emergence activity against LOLRI” value (LOLRI [6]) was 100% and the “pre-emergence activity against VERPE” value (VERPE [7]) was 90%. For the same compound, the “post-emergence activity against VERPE” value (VERPE [8]) was 90%, the “pre-emergence activity against SETVI” value (SETVI [9]) was 100% and the “pre-emergence activity against LOLRI” value (LOLRI [10]) was 90%. For the same compound, the “post-emergence activity against DIGSA” value (DIGSA [11]) was 90%, the “pre-emergence activity against ECHCG” value (ECHCG [12]) was 100% and the “pre-emergence activity against ZEAMX” value (ZEAMX [13]) was 0%. The “pre-emergence activity against DIGSA” value (DIGSA [14]) was 100%, the “post-emergence activity against TRZAS” value (TRZAS [15]) was 0% and the “post-emergence activity against ORYZA” value (ORYZA) was 0%. The “post-emergence activity against ECHCG” value (ECHCG [16]) was 80%, the “post-emergence activity against ZEAMX” value (ZEAMX [17]) was 0% and the “post-emergence activity against MATIN” value (MATIN [18]) was 90%. For the same compound, the “pre-emergence activity against STEME” value (STEME) was 90%, the “post-emergence activity against ABUTH” value (ABUTH [19]) was 80% and the “pre-emergence activity against MATIN” value (MATIN [20]) was 90%. For the same compound, the “pre-emergence activity against VERPE” value (VERPE [21]) was 90%, the “pre-emergence activity against ALOMY” value (ALOMY) was 100% and the “pre-emergence activity against ECHCG” value (ECHCG [22]) was 100%. For the same compound, the “pre-emergence activity against VIOTR” value (VIOTR) was 90%, the “pre-emergence activity against MATIN” value (MATIN [23]) was 90% and the “pre-emergence activity against POLCO” value (POLCO) was 90%. For the same compound, the “pre-emergence activity against TRZAS” value (TRZAS [24]) was 10%, the “pre-emergence activity against POAAN” value (POAAN [25]) was 100% and the “post-emergence activity against LOLRI” value (LOLRI [26]) was 90%. For the same compound, the “post-emergence activity against POAAN” value (POAAN [27]) was 90%.

Source: EP4273147A1, “SUBSTITUTED SPIROLACTAMS, SALTS THEREOF AND THEIR USE AS HERBICIDALLY ACTIVE SUBSTANCES” (Bayer Aktiengesellschaft, priority 2022, dated 2023)
